The values that follow come from US20250099596A1, “TETRAHYDRONAPHTHALENE COMPOUND, AND PREPARATION METHOD THEREFOR AND USE THEREOF IN MEDICINE” (Jiangsu Hengrui Pharmaceuticals Co., Ltd., priority 2021, published 2025).

In brackets after ≈: the same amount, converted by molar mass. Read-outs that look alike come from different tables or passages of the source.

One data set has as its system MCF7 cells. Description: Inhibitory effects on MCF7 cell proliferation (CellTiter-Glo). It counts as cell-based. As to conditions: Homo sapiens, 144 h, 6 days incubation, read-out: IC50 (nM), inhibition of MCF7 cell proliferation. The method in brief:
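MCF7 cells seeded at 3,000 cells/well in MEM with 2% FBS, then treated next day with 9 final concentrations (4-fold dilutions from 1000 nM) for 6 days at 37° C; blank control 0.5% DMSO. Viability read by CellTiter-Glo luminescence; IC50 fitted from concentration–signal data.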
A general note: Cellular ATP, detected with luciferase, serves as a proxy for viable cell number.

A short description of data set [1]: Pharmacokinetic evaluation, C57 mouse test. The settings on record: C57 mice; for AUC(0-t): read-out: Area under curve AUC0-t; for half-life: read-out: Half-life T1/2 (converted); for Cmax: read-out: Plasma concentration Cmax. The class given is in vivo. On the procedure:
With C57 mice as test animals, the plasma concentration of the compound of Example 26-1 was determined by LC/MS/MS at different time points after intragastric (i.g.)/intravenous (i.v.) administration to C57 mice. The pharmacokinetic behavior of the compound of the present disclosure in C57 mice was studied and its pharmacokinetic profile was evaluated.
Eighteen female C57 mice were evenly divided into 2 groups and fasted overnight, and the 2 groups were dosed intragastrically and intravenously, respectively. The mice were provided by Zhejiang Vital River Laboratory Animal Technology Co., Ltd.
An appropriate amount of the compound of Example 26-1 was weighed out and mixed with 5% DMSO+5% Tween 80+90% normal saline to make a 0.1 mg/mL colorless clear solution (for the intragastric administration group) and a 0.1 mg/mL colorless clear solution (for the intravenous administration group).
The intragastric administration group: the dose was 2.0 mg/kg, and the volume was 0.2 mL/10 g.
The intravenous administration group: the dose was 1.0 mg/kg, and the volume was 0.1 mL/10 g.
The intragastric administration group: Blood (0.1 mL) was collected into EDTA-K2 anticoagulation tubes before administration and 0.25 h, 0.5 h, 1.0 h, 2.0 h, 4.0 h, 6.0 h, 8.0 h, 11.0 h and 24.0 h after administration and centrifuged at 10,000 rpm for 1 min (4° C.). The plasma was separated within 1 h and stored at −20° C. before analysis. The process from blood collection to centrifugation was performed in an ice bath. Two hours after administration, feeding was resumed.
The intravenous administration group: Blood was collected before administration and 5 min, 15 min, 0.5 h, 1.0 h, 2.0 h, 4.0 h, 8.0 h, 11.0 h and 24 h after administration and processed as in the intragastric administration group.
The plasma concentration of the test compound was determined after administration of different concentrations of the test compound to C57 mice: plasma samples (25 μL) were collected from C57 mice at various time points after administration, proteins were precipitated with 200 μL of acetonitrile, and 50 μL of camptothecin (100 ng/mL) was added. The mixtures were vortexed for 5 min and centrifuged at 4000 rpm for 10 min. […] of supernatant was collected for LC-MS/MS analysis.

Data set [2] is described as follows: Solubility in FassIF and FessIF solution. It counts as physicochemical. As to conditions: thermodynamic from solid. On the procedure:
Solution (A): 4.441 g of NaH2PO4·2H2O, 0.348 g of NaOH granules and 6.186 g of NaCl were added to 900 mL of ultrapure water and well mixed, and the solution was adjusted to pH 6.5±0.05 with 1 M NaOH, brought to volume (1000 mL) with water, and stored at 4° C. for future use.
FaSSIF solution (B): 0.161 g of sodium taurocholate (NaTC) and 59 mg of lecithin were dissolved in 20 mL of solution (A). The resulting solution was vigorously stirred overnight to form a clear micellar solution, and solution (A) was added to make a volume of 100 mL. The resulting solution was stored at 4° C. for future use (not more than 2 weeks).
Solution (A): 20.2 g of NaOH granules, 43.25 g of acetic acid and 59.37 g of sodium chloride were precisely weighed out and dissolved in a proper amount of ultrapure water. The solution was brought to volume (5 L), adjusted to pH 5.0 with 1 M NaOH or 1 M HCl, and stored at 4° C. for future use.
FeSSIF solution (B): 0.80652 g of sodium taurocholate (NaTC) and 295.5 mg of lecithin were dissolved in 25 mL of solution (A). […]
3.1. […] 10 μL of the stock solution (concentration 10 mM, dissolved in DMSO) was precisely measured out and well mixed with 990 μL of an organic solvent mixture (usually DMSO:acetonitrile:ethanol=1:1:1) in a 2 mL sample flask to obtain a 100 μM clear sample solution as a reference solution. […]

The mark [3] stands for this setting: female, mouse, plasma, iv, i.v., 1.0 mg/kg.
[4] abbreviates: female, mouse, plasma, po, i.g., 2.0 mg/kg.

Consider `CC(C)C[C@H]1CCc2cc(O)ccc2[C@H]1c1ccc(N2CCC(CN3CCN(c4ccc5c(c4)CN([C@H]4CCC(=O)NC4=O)C5=O)CC3)CC2)cc1` [Example 26-1, (S)-3-(5-(4-((1-(4-((1R,2R)-6-Hydroxy-2-isobutyl-1,2,3,4-tetrahydronaphthalen-1-yl)phenyl)piperidin-4-yl)methyl)piperazin-1-yl)-1-oxoisoindolin-2-yl)piperidine-2,6-dione], for which the IC50 in the data set on MCF7 cells came to 0.59 nM. The “Clearance CL/F” value in data set [1] (i.v., 1.0 mg/kg) stood at 15.4 mL/min/kg. The AUC(0-t) in data set [1] (setting [3]) came out at 1070 ng·h/mL; in data set [1] (setting [4]), 517 ng·h/mL. Further, the half-life in data set [1] (setting [3]) is 4 h; in data set [1] (setting [4]), 5.3 h. Further, the Cmax came out at 1220 ng/mL in data set [1] (setting [3]) and 59 ng/mL in data set [1] (setting [4]). In addition, the Vd/F in data set [1] (female, mouse, plasma, po, i.g., 2.0 mg/kg, read-out: Apparent distribution volume Vz/F) is 28.3 L/kg. The CL/F in data set [1] (female, mouse, plasma, po, i.g., 2.0 mg/kg, read-out: Clearance CL/F) is 62.1 mL/min/kg. Moreover, the solubility (in general, the concentration that dissolves in the medium under given conditions) at 24 h in data set [2] (FassIF solution pH 6.5, 37° C., read-out: Solubility in FassIF solution) was 97 µM (≈ 68.3 µg/mL); in data set [2] (FessIF solution pH 5.0, 37° C., read-out: Solubility in FessIF solution), 553 µM (≈ 389 µg/mL).
